Data taken from publication PMC9609429 (Pharmaceuticals, 2022).

Experiments:
[1] = target: α1-adrenoceptor; experiment: α1-adrenoceptor radioligand binding assay ([3H]-prazosin, rat cerebral cortex); details: rat cortex tissue
Experimental: The α1-, α2-, and β1-adrenoceptor radioligand binding assay was carried out on the rat cerebral cortex. [^3H]-prazosin (19.5 Ci/mmol, α1-adrenoceptor), [^3H]-clonidine (70.5 Ci/mmol, α2-adrenoceptor), and [^3H]-CGP-12177 (48 Ci/mmol, β1-adrenergic receptor) were used as specific ligands. The brains were homogenized using ULTRA-TURRAX homogenizer in 10 mL of an ice-cold 50 mM Tris–HCl buffer (pH 7.6). Homogenates were centrifuged at 20,000× g for 20 min (0–4 °C). Next, the cell pellet was resuspended in the Tris–HCl buffer and centrifuged again. Radioligand binding assays were performed in plates (MultiScreen/Millipore). The final incubation mixture (volume 300 μL) consisted of 240 μL of the tissue suspension, 30 μL of radioligand solution, and 30 μL of the buffer containing 7–8 concentrations of the tested compound. […] The incubation was terminated by rapid filtration through Whatman GF/C filters using a vacuum manifold (Millipore). The filters were then washed twice with the assay buffer and placed in scintillation vials with a liquid scintillation cocktail. Radioactivity was measured in a WALLAC 1409 DSA liquid scintillation counter (Perkin Elmer, Waltham, MA, USA). All the assays were made in duplicates and the inhibitory constants (Ki) were estimated.

[2] = system: adrenaline-induced arrhythmia in rats; details: administered intravenously; cited from earlier work

SMILES | Adrenergic Receptors—pKi α1 [1] | ED50 (adrenaline-induced arrhythmia) [2] [mg/kg]
Cc1ccc(N(CC2=NCCN2)c2cccc(O)c2)cc1 [Phentolamine, phentolamine, reference compound] | 8.04 | –
COc1ccccc1OCCNCC(O)COc1cccc2[nH]c3ccccc3c12 (centres unmarked) [carvedilol] | – | 0.36
